Source: publication PMC6770484, “Discovery of Orexant and Anorexant Agents with Indazole Scaffold Endowed with Peripheral Antiedema Activity” (Biomolecules, 2019)
Like-named read-outs stand apart in the source and are kept apart here.

Tests used:
food intake = test: Feeding test (food intake); type: in vivo, CD-1 male mice; settings: 10 mg/Kg i.p., fasted mice, 1-h test
From the text: (§1) The international and national law and policies approved by Italian Ministry of Health were used to comply with all animal care and experimental procedures. Animal studies were advised in compliance with the ARRIVE guidelines and with the recommendations made by EU Directive 2010/63/EU for animal experiments and the Basel declaration including the 3Rs concept. CD-1 male mice (10–14 weeks of age, 25–30 g of weight) were bought from Charles River (Milan, Italy). Shortly after their arrival and for at least one week, they were kept in an animal care facility under controlled standard conditions of temperature (21 ± 1 °C), light (from 7:00 AM to 7:00 PM), and relative humidity (60 ± 10%). Access to drinking water and food was assured. All procedures were performed to decrease the number of animals used (n = 6 per group) and their distress.
The test was carried out as previously described. At 24 h before the start of a feeding test, all food was removed from the home cages of mice to be tested. The next day and at least 1 h before the feeding test began, the mice were transported to the laboratory. On test days, the animals were placed in the home cages for 30 min of drug assimilation, during which food was not available. Then compounds were intraperitoneally administered (10 mg/kg). Mice were transferred into transparent and individual plastic cages with thick white paper lining the bottom and access to a pre-measured amount of their regular lab chow (2 gr) for the 1-h test. At the end of 1 h, mice were repositioned into their home cage. The amount of food left in the trial cage, including crumbs, was measured, and the amount consumed was calculated. Feeding trials normally happened on Tuesdays and Fridays between 12:00 and 14:00 h.

[1] = biological target: T1, CB1 receptor G protein activation, rat brain membranes (Rattus norvegicus, UniProt P20272); settings: cited from earlier work; for [35S]GTPγS Binding Emax: basal = 100%; for EC50: read-out: [35S]GTPγS Binding EC50
T1 construct: Crude membrane fractions were prepared from the brain; from tissue; host or cells: Wistar rat whole brain, crude membrane fraction

[2] = biological target: T1, CB1 receptor G protein activation, rat brain membranes; test: Ligand stimulated [35S]GTPγS binding assay; type: biochemical; settings: for Emax: rat brain membranes, basal = 100%, mean ± S.E.M.
Procedure: (§2) Wistar rats were locally bred and handled according to the EU Directive 2010/63/EU and to the Regulations on Animal Protection (40/2013. (II. 14.) Korm. r.) of Hungary. Crude membrane fractions were prepared from the brain. Brains were quickly removed from the euthanized rats and directly put in an ice-cold 50 mM Tris–HCl buffer (pH 7.4). The collected tissue was then homogenized in 30 volumes (v/w) of an ice-cold buffer with a Braun Teflon-glass homogenizer at the highest rpm. The homogenate was centrifuged at 20,000× g for 25 min, and the resulting pellet was suspended in the same volume of a cold buffer followed by incubation at 37 °C for 30 min to remove endogenous ligands. Centrifugation was then repeated. The final pellets were taken up in five volumes of a 50 mM Tris–HCl (pH 7.4) buffer containing 0.32 M sucrose and stored at −80 °C. Prior to the experiment, aliquots were thawed and centrifuged at 20,000× g for 25 min and then they were resuspended in 50 mM Tris–HCl (pH 7.4), homogenized with a Douncer, followed by the determination of the protein concentration by the method of Bradford. The membrane suspensions were immediately used either in radioligand binding experiments or in [^35S]GTPγS functional assays.
Rat brain membranes (30 µg protein/tube), prepared as described above, were incubated with 0.05 nM of [^35S]GTPγS (PerkinElmer) and 10^−10–10^−5 M unlabeled ligands in the presence of 30 µM of GDP, 100 mM of NaCl, 3 mM of MgCl2 and 1 mM of EGTA in a 50 mM Tris–HCl buffer (pH 7.4) for 60 min at 30 °C. Basal [^35S]GTPγS binding was measured in the absence of ligands and set as 100%. Nonspecific binding was determined by the addition of 10 µM unlabeled GTPγS and subtracted from total binding. Incubation, filtration and radioactivity measurements of the samples were carried out as described above.
In [^35S]GTPγS binding studies, data were expressed as the percentage stimulation of the specific [^35S]GTPγS binding over the basal activity and are given as means ±S.E.M. Each experiment was performed in triplicate and analyzed with sigmoid dose–response curve fitting to obtain potency (EC50) and efficacy (Emax) values. All data and curves were analyzed by GraphPad Prism 5.0 (San Diego, CA, USA).

[3] = biological target: T2, cannabinoid receptors (CB1), rat brain membranes (Rattus norvegicus, UniProt P20272); test: [3H]WIN55212-2 radioligand competition binding assay
T2 construct: Crude membrane fractions were prepared from the brain; from tissue; host or cells: Wistar rat whole brain, crude membrane fraction
Procedure: as §2
Filtration was performed with a 24-well Brandel Cell Harvester (Gaithersburg, MD, USA). Filters were air-dried and immersed into Ultima Gold MV scintillation cocktail, and then radioactivity was measured with a TRI-CARB 2100TR liquid scintillation analyzer (Packard, Perkin Elmer, Waltham, MA, USA).

[4] = biological target: T2, cannabinoid receptors (CB1), rat brain membranes; settings: displacement of [3H]WIN55212-2, rat brain membranes; cited from earlier work
[5] = tested on: formalin-induced licking/biting; test: Formalin test; type: in vivo, CD-1 male mice; settings: 100 μg/20 μL s.c., mice
From the text: as §1
Mice were located to adapt into the transparent cages individually (30 × 14 × 12 cm) for at least an hour before testing. They were injected with 20 μL of a 1% solution of formalin in saline. Then, the compounds were administered subcutaneously in the dorsal surface of the right hind paw of the mouse using a microsyringe with a 27-gauge needle for 15 min before. Compounds were prepared by freshly diluting saline containing 0.9% NaCl in the ratio DMSO:saline 1:3 (v/v). […] The total time the animal spent licking or biting its paw was calculated.

[6] = tested on: zymosan-induced thermal hyperalgesia; test: Zymosan-induced hyperalgesia (plantar test); type: in vivo, CD-1 male mice; settings: 100 μg/20 μL s.c., after 3 h
From the text: as §1, with “All procedures were performed to decrease the number of animals used (n = 6 per group) and their distress.” left out
The compounds (100 µg) were administered subcutaneously in a volume of 20 µL in the dorsal surface of mice hind paw; this was done 15 min before a subcutaneous injection (20 μL/paw) of zymosan A (2.5% w/v in saline) into the same paw before the measurement of hyperalgesia. The sensitivity to a noxious heat stimulus was measured by the plantar test (Ugo Basile, Italy), in order to evaluate thermal hyperalgesia after the zymosan-induced inflammation of the mouse hind paw. […] Furthermore, on the test day, the animals were acclimatized to the experimental room 1 h before paw withdrawal latency (PWL) was calculated. […]

[7] = tested on: zymosan-induced paw edema; test: Edema induced by zymosan; type: in vivo, CD-1 male mice; settings: 100 μg/20 μL s.c., for 24 h
From the text: as §1
In this test, 100 µg of the compounds were administered subcutaneously in a volume of 20 µL in the dorsal surface of mice hind paw; this was done 15 min before a subcutaneous injection (20 μL/paw) of zymosan A (2.5% w/v in saline) into the same paw. Then, paw edema was calculated as formerly described. […] Paw volume was quantified using a hydroplethysmometer modified for small volumes (Ugo Basile, Varese, Italy) three times before the injections and at 1, 2, 3, 4 and 24 h thereafter.

T2 sequence (P20272 whole entry): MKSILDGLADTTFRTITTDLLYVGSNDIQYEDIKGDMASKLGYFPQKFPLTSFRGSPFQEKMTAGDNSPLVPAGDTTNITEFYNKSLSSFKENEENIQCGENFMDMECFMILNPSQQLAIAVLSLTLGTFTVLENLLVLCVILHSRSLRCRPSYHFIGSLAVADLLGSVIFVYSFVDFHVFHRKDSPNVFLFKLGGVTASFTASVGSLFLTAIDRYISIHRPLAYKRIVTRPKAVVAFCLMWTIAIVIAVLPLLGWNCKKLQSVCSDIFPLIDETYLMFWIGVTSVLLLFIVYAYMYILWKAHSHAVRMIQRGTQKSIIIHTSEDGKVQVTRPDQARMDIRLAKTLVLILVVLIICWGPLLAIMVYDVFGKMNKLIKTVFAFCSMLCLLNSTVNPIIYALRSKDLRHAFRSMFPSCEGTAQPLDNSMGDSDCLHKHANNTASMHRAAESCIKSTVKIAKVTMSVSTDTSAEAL
T1 sequence (P20272 whole entry): as above

For `CC(C)[C@H](NC(=O)c1nn(Cc2ccc(Cl)cc2Cl)c2ccccc12)C(=O)O` [LONI4, (S)-2-(1-(2,4-dichlorobenzyl)-1H-indazole-3-carboxamido)-3-methylbutanoic acid], the “effect on food intake” value (food intake) is listed as “reduce food intake”, the “[35S]GTPγS Binding Emax” value [1] is listed as 82 ± 10.6% and the EC50 [1] is listed as greater than 1000 nM.

In the case of `CNC(=O)[C@H](CC(C)C)NC(=O)c1nn(Cc2ccc(Cl)cc2Cl)c2ccccc12` [LONI12, (S)-1-(2,4-dichlorobenzyl)-N-(4-methyl-1-(methylamino)-1-oxopentan-2-yl)-1H-indazole-3-carboxamide], the Emax [2] is reported as 101 ± 1% and the Ki [3] is reported as 320 ± 16 nM.

For `CC(C)(C)[C@H](NC(=O)c1nn(Cc2ccc(Cl)cc2Cl)c2ccccc12)C(N)=O` [LONI3, (S)-N-(1-amino-3,3-dimethyl-1-oxobutan-2-yl)-1-(2,4-dichlorobenzyl)-1H-indazole-3-carboxamide], the “[35S]GTPγS Binding Emax” value [1] is given as 139 ± 4.5% and the EC50 [1] is given as 126 nM.

In the case of `CCCCCn1cc(C(=O)c2cccc3ccccc23)c2ccccc21` [JWH-018, reference compound], the Ki [4] is listed as 3.5 ± 1 nM, the “[35S]GTPγS Binding Emax” value [1] is listed as 163 ± 5.2% and the EC50 [1] is listed as 16 ± 3 nM.

In the case of `CC(C)(C)[C@H](NC(=O)c1nn(Cc2ccc(Cl)cc2Cl)c2ccccc12)C(=O)O` [LONI1, (S)-2-(1-(2,4-dichlorobenzyl)-1H-indazole-3-carboxamido)-3,3-dimethylbutanoic acid], the “[35S]GTPγS Binding Emax” value [1] is listed as 84 ± 6.6% and the EC50 [1] is listed as greater than 1000 nM.

For `COC(=O)[C@@H](NC(=O)c1nn(Cc2ccc(Cl)cc2Cl)c2ccccc12)C(C)(C)C` [LONI2, (S)-methyl-2-(1-(2,4-dichlorobenzyl)-1H-indazole-3-carboxamido)-3,3-dimethylbutanoate], the “effect on food intake” value (food intake) is given as “reduce food intake”, the “[35S]GTPγS Binding Emax” value [1] is given as 143 ± 5.7% and the EC50 [1] is given as 8.4 nM.

`CNC(=O)[C@@H](NC(=O)c1nn(Cc2ccc(Cl)cc2Cl)c2ccccc12)C(C)C` [LONI10, (S)-1-(2,4-dichlorobenzyl)-N-(3-methyl-1-(methylamino)-1-oxobutan-2-yl)-1H-indazole-3-carboxamide] gave an Emax [2] of 100 ± 1.7% and a Ki [3] of 84 ± 3.4 nM.

In the case of `CNC(=O)[C@@H](NC(=O)c1nn(Cc2ccc(Cl)cc2Cl)c2ccccc12)C(C)(C)C` [LONI11, (S)-1-(2,4-dichlorobenzyl)-N-(3,3-dimethyl-1-(methylamino)-1-oxobutan-2-yl)-1H-indazole-3-carboxamide], the “antinociceptive effect in formalin test” value [5] is reported as “slight antinociceptive effect”, the “percent of paw latency (zymosan-induced hyperalgesia)” value [6] is reported as “about 50%” and the “effect on food intake” value (food intake) is reported as “increased the food intake”. For the same compound, the EC50 [2] was 200 ± 13 nM, the “potency in GTP-binding protein stimulation relative to WIN55,212” value ([2]; compared with WIN55,212) was “three-fold less potency” and the Emax [2] was 151 ± 3%. For the same compound, the Ki [3] was 11 ± 1.2 nM and the “percent of paw volume (zymosan-induced edema)” value [7] was 100%.

For `Cc1c(C(=O)NN2CCCCC2)nn(-c2ccc(Cl)cc2Cl)c1-c1ccc(Cl)cc1` [rimonabant, 5-(4-chlorophenyl)-1-(2,4-dichloro-phenyl)-4-methyl-N-(piperidin-1-yl)-1H-pyrazole-3-carboxamide, reference compound], the “effect on food intake” value (food intake) was “reduce food intake”.
